Positions of bridges follow the written chain, without caps; N, C: chain ends. Non-standard residues stand in square brackets, D forms with d. Residues, ends and D or L forms follow the SMILES beside them. *: point of attachment. hPhe(3-Cl-4-CF3) = N[C@@H](CCc1ccc(C(F)(F)F)c(Cl)c1)C(=O)O; hPhe(3-F,4-CF3) = N[C@@H](CCc1ccc(C(F)(F)F)c(F)c1)C(=O)O; NMePhe(4-CF3) = CN[C@@H](Cc1ccc(C(F)(F)F)cc1)C(=O)O; 3Oxa8azabicyclo(3.2.1)octane = C1CC2COCC1N2*; NMeAla(cPent) = CN[C@@H](CC1CCCC1)C(=O)O; NMeGly(cPent) = CN[C@H](C(=O)O)C1CCCC1; NMeCha = CN[C@@H](CC1CCCCC1)C(=O)O; NMehLeu = CN[C@@H](CCC(C)C)C(=O)O; NEtLeu = CCN[C@@H](CC(C)C)C(=O)O; NMeChg = CN[C@H](C(=O)O)C1CCCCC1; NMeI = CC[C@H](C)[C@H](NC)C(=O)O; NMeD = CN[C@@H](CC(=O)O)C(=O)O; NMeL = CN[C@@H](CC(C)C)C(=O)O; NMeS = CN[C@@H](CO)C(=O)O; Morpholide = C1CN(*)CCO1; NMeA = CN[C@@H](C)C(=O)O; Piperidide = C1CCN(*)CC1; Pyrrolidide = C1CCN(*)C1; Thz = O=C(O)[C@@H]1CSCN1; Ac5c = NC1(C(=O)O)CCCC1; Aze = O=C(O)[C@@H]1CCN1; NEtG = CCNCC(=O)O; Sar = CNCC(=O)O; Propyl = CCC*
Tested on: Human pancreatic cancer cell line AsPC-1
Experiment: Measurement of AsPC-1 cell growth inhibition (AsPC-1 CGI)
Type: cell-based
Conditions: 96 h
How it was run: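 AsPC-1 cells in 15% FBS RPMI-1640 were exposed to test compound for 96 hours at 37° C, with CellTiter-Glo as endpoint.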

Structure (SMILES)	IC50
CC[C@H](C)[C@@H]1NC(=O)[C@H](CC(C)C)N(C)C(=O)C[C@@H](C(=O)N2CCCCC2)N(C)C(=O)[C@H](C2CCCCC2)N(C)C(=O)C2(CCCC2)NC(=O)[C@@H]2CSCN2C(=O)[C@H](CCc2ccc(C(F)(F)F)c(Cl)c2)NC(=O)CN(C)C(=O)[C@H](CC2CCCCC2)N(C)C(=O)CN(C)C(=O)CN(C)C1=O [Compound 1093] ([NMeL]I[Sar][Sar][NMeCha][Sar][hPhe(3-Cl-4-CF3)][Thz][Ac5c][NMeChg][NMeD]-Piperidide; lactam N-11)	20 to 50 nM
CC[C@H](C)[C@@H]1NC(=O)[C@H](CC(C)C)N(CC)C(=O)C[C@@H](C(=O)N2CCOCC2)N(C)C(=O)[C@H](C2CCCC2)N(C)C(=O)C2(CCCC2)NC(=O)[C@@H]2CCCN2C(=O)[C@H](CCc2ccc(C(F)(F)F)c(Cl)c2)NC(=O)CN(C)C(=O)[C@H](C2CCCC2)N(C)C(=O)[C@@H]2CCN2C(=O)[C@H](C)NC1=O [Compound 1140] ([NEtLeu]IA[Aze][NMeGly(cPent)][Sar][hPhe(3-Cl-4-CF3)]P[Ac5c][NMeGly(cPent)][NMeD]-Morpholide; lactam N-11)	100 to 500 nM
CC[C@H](C)[C@@H]1NC(=O)[C@H](CC2CCCC2)N(C)C(=O)C[C@@H](C(=O)N2CCOCC2)N(C)C(=O)[C@H](C2CCCC2)N(C)C(=O)C2(CCCC2)NC(=O)[C@@H]2CCCN2C(=O)[C@H](CCc2ccc(C(F)(F)F)c(Cl)c2)NC(=O)CN(C)C(=O)[C@H](C2CCCC2)N(C)C(=O)[C@@H]2CCN2C(=O)[C@H](C)NC1=O [Compound 1145] ([NMeAla(cPent)]IA[Aze][NMeGly(cPent)][Sar][hPhe(3-Cl-4-CF3)]P[Ac5c][NMeGly(cPent)][NMeD]-Morpholide; lactam N-11)	100 to 500 nM
CCCOC[C@H]1C(=O)N(C)CC(=O)N[C@@H](CCc2ccc(C(F)(F)F)c(Cl)c2)C(=O)N2CCC[C@H]2C(=O)NC2(CCCC2)C(=O)N(C)[C@@H](C2CCCC2)C(=O)N(C)[C@H](C(=O)N2C3CCC2COC3)CC(=O)N(C)[C@@H](CCC(C)C)C(=O)N[C@@H]([C@@H](C)CC)C(=O)N(C)[C@@H](C)C(=O)N2CC[C@H]2C(=O)N1C [Compound 1154] ([NMehLeu]I[NMeA][Aze][NMeS](Propyl)[Sar][hPhe(3-Cl-4-CF3)]P[Ac5c][NMeGly(cPent)][NMeD]-{3Oxa8azabicyclo(3.2.1)octane}; lactam N-11)	20 to 50 nM
CC[C@H](C)[C@@H]1NC(=O)[C@H](CC(C)C)N(C)C(=O)C[C@@H](C(=O)N2CCCC2)N(C)C(=O)[C@H]([C@@H](C)CC)N(C)C(=O)C2(CCCC2)NC(=O)[C@@H]2CCCN2C(=O)[C@H](CCc2ccc(C(F)(F)F)c(Cl)c2)NC(=O)CN(CC)C(=O)[C@H](Cc2ccc(C(F)(F)F)cc2)N(C)C(=O)[C@@H]2CCN2C(=O)[C@H](C)N(C)C1=O [Compound 1159] ([NMeL]I[NMeA][Aze][NMePhe(4-CF3)][NEtG][hPhe(3-Cl-4-CF3)]P[Ac5c][NMeI][NMeD]-Pyrrolidide; lactam N-11)	20 to 50 nM
CC[C@H](C)[C@@H]1NC(=O)[C@H](CC(C)C)N(C)C(=O)C[C@@H](C(=O)N(C)C)N(C)C(=O)[C@H](C2CCCC2)N(C)C(=O)C2(CCCC2)NC(=O)[C@@H]2CCCN2C(=O)[C@H](CCc2ccc(C(F)(F)F)c(F)c2)NC(=O)CN(C)C(=O)[C@H](CC2CCCCC2)N(C)C(=O)[C@@H]2CCN2C(=O)[C@H](C)NC1=O [Compound 1164] ([NMeL]IA[Aze][NMeCha][Sar][hPhe(3-F,4-CF3)]P[Ac5c][NMeGly(cPent)][NMeD]-NMe2; lactam N-11)	20 to 50 nM

Further lines, results first:

IC50	Structure (SMILES)
20 to 50 nM	CC[C@H](C)[C@@H]1NC(=O)[C@H](CC(C)C)N(C)C(=O)C[C@@H](C(=O)N2CCOCC2)N(C)C(=O)[C@H](C2CCCC2)N(C)C(=O)C2(CCCC2)NC(=O)[C@@H]2CCCN2C(=O)[C@H](CCc2ccc(C(F)(F)F)c(Cl)c2)NC(=O)CN(C)C(=O)[C@H](CC2CCCCC2)N(C)C(=O)[C@@H]2CCN2C(=O)[C@H](C)NC1=O [Compound 1137] ([NMeL]IA[Aze][NMeCha][Sar][hPhe(3-Cl-4-CF3)]P[Ac5c][NMeGly(cPent)][NMeD]-Morpholide; lactam N-11)
20 to 50 nM	CC[C@H](C)[C@@H]1NC(=O)[C@H](CC(C)C)N(C)C(=O)C[C@@H](C(=O)N2CCOCC2)N(C)C(=O)[C@H](C2CCCC2)N(C)C(=O)C2(CCCC2)NC(=O)[C@@H]2CCCN2C(=O)[C@H](CCc2ccc(C(F)(F)F)c(Cl)c2)NC(=O)CN(CC)C(=O)[C@H](C2CCCC2)N(C)C(=O)[C@@H]2CCN2C(=O)[C@H](C)N(C)C1=O [Compound 1142] ([NMeL]I[NMeA][Aze][NMeGly(cPent)][NEtG][hPhe(3-Cl-4-CF3)]P[Ac5c][NMeGly(cPent)][NMeD]-Morpholide; lactam N-11)
20 to 50 nM	CC[C@H](C)[C@@H]1NC(=O)[C@H](CC(C)C)N(CC)C(=O)C[C@@H](C(=O)N2CCCC2)N(C)C(=O)[C@H]([C@@H](C)CC)N(C)C(=O)C2(CCCC2)NC(=O)[C@@H]2CCCN2C(=O)[C@H](CCc2ccc(C(F)(F)F)c(Cl)c2)NC(=O)CN(C)C(=O)[C@H](Cc2ccc(C(F)(F)F)cc2)N(C)C(=O)[C@@H]2CCN2C(=O)[C@H](C)NC1=O [Compound 1146] ([NEtLeu]IA[Aze][NMePhe(4-CF3)][Sar][hPhe(3-Cl-4-CF3)]P[Ac5c][NMeI][NMeD]-Pyrrolidide; lactam N-11)
